IC50 and JAK1/TYK2 selectivity data for 14 compounds are collected here from patent EP4813463A2, “TYK2 INHIBITORS AND COMPOSITIONS AND METHODS THEREOF” (Lynk Pharmaceuticals Co. Ltd., priority 2023, dated 2024).

The target of one assay is T1, JAK1-JH2 domain (Homo sapiens, UniProt P23458).
T1 construct: JAK1-JH2 domain or TYK2-JH2 domain enzyme in assay buffer
As to the kind of experiment: Binding activity test for JH2 domain of JAK1 (Tb-antibody/tracer FRET). The settings on record: JH2 domain enzyme; 60 min at 25°C, then 4°C overnight; read-out: JAK1 JH2 Binding IC50. The protocol: Binding Activity test for JH2 domain of JAK1 and TYK2 […] Add 8μL/well in echo source plate, echo will add 75nL/well with 3-fold serial dilution for 11 points in assay plate. 75nL DMSO for high control and low control. […] For low control, add 5μL/well assay buffer. And then spin down at 1000rpm and centrifuge for 30 seconds. After enzyme system prepared, add 5μL of Tb-antibody solution into each well of assay plate. Spin down at 1000 rpm and centrifuge for 30sec. After Tb-antibody added, also add 5μL of tracer into the assay plate. Spin down at 1000rpm and centrifuge for 30sec. Incubate for […] at 25°C firstly and then continue to incubate the plate at 4°C overnight. Read by envision in FRET mode. The Luminescence value was recorded by a multi-label reader Envision (PerkinElmer). […] Table 2. IC50 on JH2 domain activity (nM)

In another assay the target is T2, TYK2-JH2 domain (Homo sapiens, UniProt P29597).
T2 construct: JAK1-JH2 domain or TYK2-JH2 domain enzyme in assay buffer
T2 sequence (P29597 589-875 limits assumed): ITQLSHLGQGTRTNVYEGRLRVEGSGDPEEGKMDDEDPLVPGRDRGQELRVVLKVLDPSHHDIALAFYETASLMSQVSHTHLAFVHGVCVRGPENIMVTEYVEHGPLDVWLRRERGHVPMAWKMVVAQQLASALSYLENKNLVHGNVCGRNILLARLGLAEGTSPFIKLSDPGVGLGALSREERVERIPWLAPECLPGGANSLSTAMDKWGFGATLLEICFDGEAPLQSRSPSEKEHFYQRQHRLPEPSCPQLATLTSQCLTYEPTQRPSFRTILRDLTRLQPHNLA
As to the kind of experiment: Binding activity test for JH2 domain of TYK2 (Tb-antibody/tracer FRET). The settings on record: for IC50: JH2 domain enzyme, 60 min at 25°C, then 4°C overnight, read-out: TYK2 JH2 Binding IC50; for JAK1/TYK2 selectivity: ratio of JAK1 JH2 to TYK2 JH2 binding IC50. In short, it runs like this: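 Competitive TR-FRET binding: compounds dispensed as an 11-point 3-fold dilution series, then Tb-labelled antibody and tracer added to the JH2 protein system. Incubated at 25°C, then overnight at 4°C; FRET signal read on Envision and IC50 (nM) derived.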

Assay [1] concerns Ba/F3-FL-TYK2-P760L cells. Kind of assay: Anti-proliferative assay in engineered Ba/F3 cells (Cell-Titer Glo, 72 h). Type of assay: cell-based. The settings on record: 72 h compound treatment, concentration that causes 50% growth inhibition, read-out: Baf3-FL-T2P760L. The method, boiled down:
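Ba/F3 cells carrying Tel-dimerization/JAK kinase fusion, IL-3-independent, in RPMI-1640 + 10% FBS; 9-point 3-fold dilutions from 20 µM (0.1% DMSO) added after 24 h, 72 h at 37 °C. Viability by Cell-Titer Glo ATP luminescence; % inhibition versus DMSO cells, blank-corrected, giving IC50.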

Read-outs that look alike come from different tables or passages of the source. Where only a bound is given, the exact number is not on record here.

T1 sequence (P23458 583-855 limits assumed): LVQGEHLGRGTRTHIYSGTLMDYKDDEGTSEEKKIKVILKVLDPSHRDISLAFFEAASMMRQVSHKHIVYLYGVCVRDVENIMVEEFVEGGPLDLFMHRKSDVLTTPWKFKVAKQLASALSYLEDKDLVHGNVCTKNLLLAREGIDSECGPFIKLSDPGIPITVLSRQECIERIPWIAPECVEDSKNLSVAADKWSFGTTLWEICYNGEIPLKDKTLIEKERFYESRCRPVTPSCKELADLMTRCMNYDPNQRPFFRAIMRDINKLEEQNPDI

For the compound `[2H]C([2H])([2H])NC(=O)c1cnc(NC(=O)[C@@H]2C[C@@H]2F)cc1Nc1cnn2ccc(C(O)C(F)(F)F)c(OC)c12` (single isomer, unassigned) [Example 15B, 6-((1S,2S)-2-fluorocyclopropane-1-carboxamido)-4-((4-methoxy-5-((R*)-2,2,2-trifluoro-1-hydroxyethyl)pyrazolo[1,5-a]pyridin-3-yl)amino)-N-(methyl-d3)nicotinamide], the results for the IC50 (on JAK1-JH2 domain; at TYK2-JH2 domain; in assay [1]) were 20 nM, 0.375 nM and 870 nM, respectively. For the same compound, the JAK1/TYK2 selectivity at TYK2-JH2 domain is 53.3.

For `[2H]C([2H])([2H])NC(=O)c1cnc(NC(=O)C2CC23CC3)cc1Nc1cnn2ccc([C@H](O)C(F)(F)F)c(OC)c12` (single isomer, unassigned) [Example 32B, 4-((4-Methoxy-5-((S)-2,2,2-trifluoro-1-hydroxyethyl)pyrazolo[1,5-a]pyridin-3-yl)amino)-N-(methyl-d3)-6-((R*)-spiro[2.2]pentane-1-carboxamido)nicotinamide], the IC50 was determined as 11.5 nM on JAK1-JH2 domain, 0.108 nM at TYK2-JH2 domain and 27.3 nM in assay [1]. The JAK1/TYK2 selectivity at TYK2-JH2 domain is recorded as 106.2.

`[2H]C([2H])([2H])CC(=O)c1cnc(NC(=O)C2CC2)cc1Nc1nn(C)c2ccc(C(OC)C(F)(F)F)c(OC)c12` (single isomer, unassigned) [Example 65A, (R*)-N-(4-((4-methoxy-1-methyl-5-(2,2,2-trifluoro-1-methoxyethyl)-1H-indazol-3-yl)amino)-5-(propanoyl-3,3,3-d3)pyridin-2-yl)cyclopropanecarboxamide]: the IC50 at JAK1-JH2 domain is > 298 nM; on TYK2-JH2 domain, 0.54 nM; in assay [1], 117 nM. Further, the JAK1/TYK2 selectivity on TYK2-JH2 domain is recorded as >553.80.

Regarding `[2H]C([2H])([2H])CC(=O)c1cnc(NC(=O)C2CC2)cc1Nc1nn(C)c2ccc(C(OC)C(F)(F)F)c(OC)c12` (single isomer, unassigned) [Example 65B, (S*)-N-(4-((4-methoxy-1-methyl-5-(2,2,2-trifluoro-1-methoxyethyl)-1H-indazol-3-yl)amino)-5-(propanoyl-3,3,3-d3)pyridin-2-yl)cyclopropanecarboxamide], the IC50 on JAK1-JH2 domain was determined as 12.5 nM; on TYK2-JH2 domain it was 0.09 nM; in assay [1], 2.1 nM. Moreover, the JAK1/TYK2 selectivity at TYK2-JH2 domain turned out to be 144.84.

For `[2H]C([2H])([2H])NC(=O)c1nnc(NC(=O)C2CC23CC3)cc1Nc1cnn2ccc([C@H](O)C(F)(F)F)c(OC)c12` (single isomer, unassigned) [Example 82A, 4-((4-Methoxy-5-((S)-2,2,2-trifluoro-1-hydroxyethyl)pyrazolo[1,5-a]pyridin-3-yl)amino)-N-(methyl-d3)-6-((R*)-spiro[2.2]pentane-1-carboxamido)pyridazine-3-carboxamide], the IC50 was 7.96 nM at JAK1-JH2 domain; 0.21 nM at TYK2-JH2 domain; 35 nM in assay [1] (Mus musculus, BaF3, 72 h). On TYK2-JH2 domain, the JAK1/TYK2 selectivity amounted to 38.29.

Turning to `[2H]C([2H])([2H])NC(=O)c1nnc(NC(=O)C2CC23CC3)cc1Nc1cnn2ccc([C@H](O)C(F)(F)F)c(OC)c12` (single isomer, unassigned) [Example 82B, 4-((4-Methoxy-5-((S)-2,2,2-trifluoro-1-hydroxyethyl)pyrazolo[1,5-a]pyridin-3-yl)amino)-N-(methyl-d3)-6-((S*)-spiro[2.2]pentane-1-carboxamido)pyridazine-3-carboxamide], the results for the IC50 (at JAK1-JH2 domain; on TYK2-JH2 domain; in assay [1]) were 6.32 nM, 0.23 nM and 27 nM, respectively. The JAK1/TYK2 selectivity at TYK2-JH2 domain is 27.48.

For `CCOC(c1ccc2c(c(Nc3cc(NC(=O)C4CC4)ncc3C(=O)OC)nn2C)c1OC)C(F)(F)F` (single isomer, unassigned) [Example 106B, Methyl (S*)-6-(cyclopropanecarboxamido)-4-((5-(1-ethoxy-2,2,2-trifluoroethyl)-4-methoxy-1-methyl-1H-indazol-3-yl)amino)nicotinate], the IC50 at JAK1-JH2 domain was found to be 15.8 nM; at TYK2-JH2 domain it was 0.21 nM; in assay [1] (Mus musculus, BaF3, 72 h), 5.49 nM. Besides, the JAK1/TYK2 selectivity at TYK2-JH2 domain is reported as 75.19.

As for `CNC(=O)c1nnc(NC(=O)C2CC2)cc1Nc1cn(C)c2cccc(OC)c12` [Example 1, 6-(Cyclopropanecarboxamido)-4-((4-methoxy-1-methyl-1H-indol-3-yl)amino)-N-methylpyridazine-3-carboxamide], the IC50 on JAK1-JH2 domain came out at 19.5 nM; on TYK2-JH2 domain, 2.33 nM; in assay [1] (Mus musculus, BaF3, 72 h), 1170 nM. Also, on TYK2-JH2 domain, the JAK1/TYK2 selectivity is 8.4.

On to `[2H]C([2H])([2H])NC(=O)c1cnc(NC(=O)C2CC2)cc1Nc1cnn2ccc(C(=O)OC)c(OC)c12` [Example 6, Methyl 3-((2-(cyclopropanecarboxamido)-5-((methyl-d3)carbamoyl)pyridin-4-yl)amino)-4-methoxypyrazolo[1,5-a]pyridine-5-carboxylate], for which the IC50 at JAK1-JH2 domain was found to be 7.45 nM; on TYK2-JH2 domain, 0.482 nM; in assay [1] (Mus musculus, BaF3, 72 h) it was 146 nM. Also, the JAK1/TYK2 selectivity on TYK2-JH2 domain was determined as 15.4.

On to `[2H]C([2H])([2H])NC(=O)c1cnc(NC(=O)C2CC2)cc1Nc1cnn2ccc(C(F)(F)F)c(OC)c12` [Example 10, 6-(Cyclopropanecarboxamido)-4-((4-methoxy-5-(trifluoromethyl)pyrazolo[1,5-a]pyridin-3-yl)amino)-N-(methyl-d3)nicotinamide], for which the IC50 at JAK1-JH2 domain was found to be 9.71 nM; at TYK2-JH2 domain it was 0.224 nM; in assay [1] (Mus musculus, BaF3, 72 h) it was 120 nM. Also, at TYK2-JH2 domain, the JAK1/TYK2 selectivity is 43.3.

Consider `[2H]C([2H])([2H])NC(=O)c1cnc(NC(=O)[C@@H]2C[C@@H]2F)cc1Nc1cnn2ccc(C(F)(F)F)c(OC)c12` [Example 11, 6-((1S,2S)-2-fluorocyclopropane-1-carboxamido)-4-((4-methoxy-5-(trifluoromethyl)pyrazolo[1,5-a]pyridin-3-yl)amino)-N-(methyl-d3)nicotinamide], for which the IC50 is 17.6 nM on JAK1-JH2 domain; 0.182 nM at TYK2-JH2 domain; 54.5 nM in assay [1] (Mus musculus, BaF3, 72 h). Further, the JAK1/TYK2 selectivity at TYK2-JH2 domain is recorded as 96.5.

For the compound `CCOC(=O)c1nnc(NC(=O)C2CC2)cc1Nc1cccc(-c2ncn(C)n2)c1OC` [Example 86, Ethyl 6-(cyclopropanecarboxamido)-4-((2-methoxy-3-(1-methyl-1H-1,2,4-triazol-3-yl)phenyl)amino)pyridazine-3-carboxylate], the IC50 on JAK1-JH2 domain and at TYK2-JH2 domain was > 298 nM each time.

Turning to `[2H]C([2H])([2H])OC(=O)c1nnc(NC(=O)C2CC2)cc1Nc1nc2ccc(N3CC(OC)C3)cn2n1` [Example 125, Methyl-d3 6-(cyclopropanecarboxamido)-4-((6-(3-methoxyazetidin-1-yl)-[1,2,4]triazolo[1,5-a]pyridin-2-yl)amino)pyridazine-3-carboxylate], at JAK1-JH2 domain, the IC50 was > 298 nM. Further, at TYK2-JH2 domain, the IC50 turned out to be 52.4 nM and the JAK1/TYK2 selectivity is given as >5.70.

Regarding `[2H]C([2H])([2H])NC(=O)c1cnc(NC(=O)C2CC23CC3)cc1Nc1nn(C)c2ccc([C@H](O)C(F)(F)F)c(OC)c12` (stereo partly drawn) [Example 199, 4-((4-Methoxy-1-methyl-5-((S)-2,2,2-trifluoro-1-hydroxyethyl)-1H-indazol-3-yl)amino)-N-(methyl-d3)-6-(spiro[2.2]pentane-1-carboxamido)nicotinamide], the IC50 on JAK1-JH2 domain is 5.58 nM. At TYK2-JH2 domain, the IC50 is 0.091 nM and the JAK1/TYK2 selectivity is reported as 61.34.
